In ChEMBL document CHEMBL1144997, “Interaction of cis-(6-benzhydrylpiperidin-3-yl)benzylamine analogues with monoamine transporters: structure-activity relationship study of structurally constrained 3,6-disubstituted piperidine analogues of (2,2-diphenylethyl)-[1-(4-fluorobenzyl)piperidin-4-ylmethyl]amine” (J Med Chem, 2003) one finds Selectivity ratio and IC50 data, which are given here for 15 molecules.

Experiment [1] can be described thus: Ratio of [3H]- DA uptake to DAT binding was determined. The format is functional.
Experiment [2] addresses Sodium-dependent dopamine transporter (Rattus norvegicus, UniProt P23977). In words: biochemical. The class given is tissue-based, Striatum.
Description: Binding affinity at the dopamine transporter in rast striatum by [3H]WIN-35428 displacement.
Experiment [3] has as its target Norepinephrine transporter (Rattus norvegicus, UniProt Q9WTR4). In words: Binding affinity at the norepinephrine transporter in rat striatum by [3H]nisoxetine displacement. The class given is tissue-based.
The target of experiment [4] is Sodium-dependent serotonin transporter (Rattus norvegicus, UniProt P31652). Put plainly: Binding affinity at serotonin transporter in rat striatum by [3H]citalopram displacement. The class given is tissue-based.
The species named for experiment [5] is Rattus norvegicus. Put plainly: Inhibition of DAT uptake was determined by measuring the [3H]DA accumulation in rat striatal synaptosomes. The format is functional. The following applies: Brain.

Chain of Sodium-dependent serotonin transporter (P31652 whole entry): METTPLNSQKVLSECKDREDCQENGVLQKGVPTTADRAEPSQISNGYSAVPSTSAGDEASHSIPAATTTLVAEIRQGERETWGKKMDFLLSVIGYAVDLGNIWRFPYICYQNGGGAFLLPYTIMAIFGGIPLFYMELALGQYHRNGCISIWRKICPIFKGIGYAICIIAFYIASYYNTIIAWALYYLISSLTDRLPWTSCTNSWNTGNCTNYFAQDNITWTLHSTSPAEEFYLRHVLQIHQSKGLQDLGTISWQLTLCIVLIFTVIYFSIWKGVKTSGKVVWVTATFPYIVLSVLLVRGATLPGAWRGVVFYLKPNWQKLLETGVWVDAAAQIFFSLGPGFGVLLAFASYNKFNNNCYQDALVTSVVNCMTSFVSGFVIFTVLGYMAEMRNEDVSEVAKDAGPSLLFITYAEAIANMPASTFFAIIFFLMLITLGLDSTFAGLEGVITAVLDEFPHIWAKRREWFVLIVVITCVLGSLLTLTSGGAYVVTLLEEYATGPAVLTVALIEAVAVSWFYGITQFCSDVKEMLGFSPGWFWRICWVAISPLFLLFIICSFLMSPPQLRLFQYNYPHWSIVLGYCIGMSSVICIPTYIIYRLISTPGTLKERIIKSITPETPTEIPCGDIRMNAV
Chain of Sodium-dependent dopamine transporter (P23977 whole entry): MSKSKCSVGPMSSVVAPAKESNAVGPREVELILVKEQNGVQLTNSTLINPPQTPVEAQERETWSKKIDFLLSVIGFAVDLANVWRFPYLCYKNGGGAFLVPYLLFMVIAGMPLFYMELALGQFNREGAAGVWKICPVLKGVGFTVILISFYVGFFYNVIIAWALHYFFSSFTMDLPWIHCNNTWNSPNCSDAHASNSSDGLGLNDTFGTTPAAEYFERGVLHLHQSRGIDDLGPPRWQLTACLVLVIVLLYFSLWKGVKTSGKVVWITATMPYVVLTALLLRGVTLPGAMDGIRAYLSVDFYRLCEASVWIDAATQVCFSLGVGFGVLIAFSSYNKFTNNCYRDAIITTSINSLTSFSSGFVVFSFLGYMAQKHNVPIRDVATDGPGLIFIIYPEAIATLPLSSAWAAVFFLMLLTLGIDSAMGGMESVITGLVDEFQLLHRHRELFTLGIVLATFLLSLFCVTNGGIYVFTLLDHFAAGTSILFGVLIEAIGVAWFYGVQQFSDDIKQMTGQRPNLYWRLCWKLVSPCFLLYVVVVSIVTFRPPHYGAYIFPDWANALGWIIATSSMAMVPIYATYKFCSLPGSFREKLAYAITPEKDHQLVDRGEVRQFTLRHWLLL
Chain of Norepinephrine transporter (Q9WTR4 whole entry): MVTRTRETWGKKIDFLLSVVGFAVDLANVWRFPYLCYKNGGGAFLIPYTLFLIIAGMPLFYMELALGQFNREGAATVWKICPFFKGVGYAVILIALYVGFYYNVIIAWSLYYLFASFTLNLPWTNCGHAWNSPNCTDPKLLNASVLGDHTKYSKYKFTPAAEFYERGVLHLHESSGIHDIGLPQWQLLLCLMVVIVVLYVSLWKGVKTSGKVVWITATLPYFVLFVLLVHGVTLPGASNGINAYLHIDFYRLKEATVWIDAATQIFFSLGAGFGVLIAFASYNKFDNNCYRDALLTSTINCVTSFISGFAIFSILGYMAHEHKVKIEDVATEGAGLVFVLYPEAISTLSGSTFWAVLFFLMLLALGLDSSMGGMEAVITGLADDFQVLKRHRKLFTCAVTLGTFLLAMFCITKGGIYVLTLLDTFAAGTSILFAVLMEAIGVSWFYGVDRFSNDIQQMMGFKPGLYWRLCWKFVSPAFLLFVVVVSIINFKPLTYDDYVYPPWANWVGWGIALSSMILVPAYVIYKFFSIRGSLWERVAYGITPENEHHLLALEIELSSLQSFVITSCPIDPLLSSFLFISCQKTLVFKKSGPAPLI

With `Fc1ccc(CN2CCC(CNCC(c3ccccc3)c3ccccc3)CC2)cc1`, in experiment [1], the Selectivity ratio amounted to 2.5.
For `c1ccc(C(c2ccccc2)[C@H]2CC[C@@H](NCc3c[nH]c4ccccc34)CN2)cc1`, the IC50 (as a rule, the concentration that gives 50% inhibition) was 834 nM in experiment [2], 3790 nM in experiment [3] and 3010 nM in experiment [4].
For `Fc1ccc(CN[C@H]2CC[C@@H](C(c3ccccc3)c3ccccc3)NC2)cc1`, the IC50 was 53.8 nM in experiment [5], 33.8 nM in experiment [2], 1420 nM in experiment [3] and 1330 nM in experiment [4]. The Selectivity ratio in experiment [1] came to 1.6.
Take `Oc1ccc(CN[C@@H]2CC[C@H](C(c3ccccc3)c3ccccc3)NC2)cc1`: the half-inhibitory concentration (IC50) in experiment [2] was determined as 65.9 nM; in experiment [3], 201 nM; in experiment [4], 862 nM.
Regarding `c1ccc(C(c2ccccc2)[C@H]2CC[C@@H](NCc3cccs3)CN2)cc1`, the IC50 in experiment [2] was 267 nM; in experiment [3], 4730 nM; in experiment [4], 3650 nM.
In the case of `Fc1ccc(CCNC2CCC(C(c3ccccc3)c3ccccc3)NC2)cc1` (stereo not given), the IC50 in experiment [2] amounted to 173 nM; in experiment [3], 1740 nM; in experiment [4], 2190 nM.
For `c1ccc(C(c2ccccc2)[C@H]2CC[C@@H](NCc3csc4ccccc34)CN2)cc1` the same measures were 515 nM, 1050 nM and 2770 nM.
Consider `COc1ccc(CN[C@@H]2CC[C@H](C(c3ccccc3)c3ccccc3)NC2)cc1`, for which the IC50 in experiment [5] amounted to 40.5 nM; in experiment [2], 47.5 nM; in experiment [3], 1110 nM; in experiment [4] it was 1040 nM. The Selectivity ratio in experiment [1] is 0.85.
Regarding `Fc1ccc(CN[C@@H]2CC[C@H](C(c3ccccc3)c3ccccc3)NC2)cc1`, the IC50 in experiment [5] came to 142 nM; in experiment [2], 229 nM; in experiment [3], 2290 nM; in experiment [4] it was 3540 nM. In addition, the Selectivity ratio in experiment [1] was 0.62.
The matching figures for `N#Cc1ccc(CN[C@@H]2CC[C@H](C(c3ccccc3)c3ccccc3)NC2)cc1`: 152 nM, 109 nM, 16600 nM, 1550 nM and 1.4.
For `c1ccc(CN[C@@H]2CC[C@H](C(c3ccccc3)c3ccccc3)NC2)cc1`, the results for the IC50 in experiment [2], in experiment [3] and in experiment [4] were 114 nM, 612 nM and 2130 nM, respectively.
In the case of `c1ccc(C(c2ccccc2)[C@H]2CC[C@@H](NCc3cc4ccccc4[nH]3)CN2)cc1`, the IC50 in experiment [5] stood at 51 nM; in experiment [2], 95.4 nM; in experiment [3], 1010 nM; in experiment [4], 1800 nM. Besides, in experiment [1], the Selectivity ratio was 0.53.
For `Fc1ccc(CN[C@@H]2CC[C@H](C(c3ccccc3)c3ccccc3)NC2)cc1F` the same measures were 77 nM, 63.5 nM, 1590 nM, 2250 nM and 1.2.
The matching figures for `N#Cc1ccc(CN[C@H]2CC[C@@H](C(c3ccccc3)c3ccccc3)NC2)cc1`: 9.1 nM, 11.3 nM, 1670 nM, 434 nM and 0.8.
Consider `Fc1ccc(CNC2CCC(C(c3ccccc3)c3ccccc3)NC2)cc1` (racemic), for which, in experiment [1], the Selectivity ratio was determined as 1.4.
